In test [1] the target is VM321 (HvirOR6 L321V, VM6) (Heliothis virescens, UniProt Q8MMI0, L321V). The test is described as follows: cell-based. The test is classed as cell-based. To be noted: for response of mutant receptor to compound: 10^-4 M, HvirOR6 L321V (VM6/VM321).
For test [2], the system named is HvirOR6 mutants VM1, VM2, VM3, VM4, VM12, VM15, VM16, VM20, VM23, VM24, VM29, and VM31. The test is classed as cell-based, Heliothis virescens. To be noted: 10^-4 M, 12 mutants VM1, VM2, VM3, VM4, VM12, VM15, VM16, VM20, VM23, VM24, VM29, VM31.
The target in a further test is HsubOR6/HsubOrco (Heliothis subflexa, UniProt A0A8E4MSQ8). Nature of the test: HsubOR6/HsubOrco co-expressed in Xenopus oocytes, two-electrode voltage clamp. The test is classed as cell-based. To be noted: for response of receptor to compound: 10^-4 M solution. For orientation: Two-electrode voltage clamp holds a large cell at a set potential and records current.
Test [3] has as its system HvirOR6 mutants VM5, VM7, VM10, VM11, VM13, VM14, VM17, VM21, VM22, and VM30. The test is classed as cell-based, Heliothis virescens. To be noted: 10^-4 M, 10 mutants VM5, VM7, VM10, VM11, VM13, VM14, VM17, VM21, VM22, VM30.
For the next test, the target named is SM321 (HsubOR6 V321L) (Heliothis subflexa, UniProt A0A8E4MSQ8, V314L). The test is described as follows: cell-based. To be noted: for response of mutant receptor compared with HsubOR6: 10^-4 M, HsubOR6 V321L (SM321). The test is classed as cell-based.
Test [4] relates to chimeric OR6s (VSS, SVV, VVS, and SSV). The test is classed as cell-based, Heliothis virescens, Heliothis subflexa.
The target of a further test is HvirOR6/HvirOrco (Heliothis virescens, UniProt Q8MMI0). Nature of the test: HvirOR6/HvirOrco co-expressed in Xenopus oocytes, two-electrode voltage clamp. The test is classed as cell-based. To be noted: for response of receptor to compound / response (inward current): HvirOR6/HvirOrco Xenopus oocytes; for response (inward current): concentration of 10^-4 M.
Test [5] deals with HvirOR6 mutants VM8, VM26, VM27, and VM28. The test is classed as cell-based, Heliothis virescens. To be noted: 10^-4 M.
Test [6] has as its system HvirOR6 mutants VM9 and VM25. The test is classed as cell-based, Heliothis virescens. To be noted: 10^-4 M.
Another test has as its system HvirOR6 mutant VM18. The test is classed as cell-based, Heliothis virescens. To be noted: 10^-4 M.
In the next test the test system is HvirOR6 mutant VM19. The test is classed as cell-based, Heliothis virescens. To be noted: 10^-4 M.
The test system of the next test is HsubOR13/HsubOrco. The test is described as follows: HsubOR13/HsubOrco co-expressed in Xenopus oocytes, two-electrode voltage clamp. To be noted: 10^-4 M solution.
Another test deals with HsubOR14/HsubOrco. The test is described as follows: HsubOR14/HsubOrco co-expressed in Xenopus oocytes, two-electrode voltage clamp. To be noted: 10^-4 M solution.
Another test relates to HsubOR16/HsubOrco. Nature of the test: HsubOR16/HsubOrco co-expressed in Xenopus oocytes, two-electrode voltage clamp. To be noted: 10^-4 M solution.

pEC50: −log10 of the molar value. Entries after “also recorded” stand apart in the source; their conditions may differ.

Chain of HsubOR6/HsubOrco (A0A8E4MSQ8 1-424): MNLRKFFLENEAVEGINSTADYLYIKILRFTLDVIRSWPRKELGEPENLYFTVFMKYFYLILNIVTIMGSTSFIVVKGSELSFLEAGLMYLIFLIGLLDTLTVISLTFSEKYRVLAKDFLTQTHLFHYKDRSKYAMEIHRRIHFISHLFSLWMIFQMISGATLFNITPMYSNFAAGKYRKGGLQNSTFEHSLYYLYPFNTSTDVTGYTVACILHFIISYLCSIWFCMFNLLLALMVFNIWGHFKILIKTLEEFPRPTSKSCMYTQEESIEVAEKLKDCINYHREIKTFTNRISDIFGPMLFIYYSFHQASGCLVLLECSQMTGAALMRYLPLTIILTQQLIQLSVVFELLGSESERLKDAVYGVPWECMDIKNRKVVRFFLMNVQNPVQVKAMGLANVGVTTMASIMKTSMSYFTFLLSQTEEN
Procedure for HsubOR13/HsubOrco: (§1) Stock solutions (1 M) were dissolved in dimethyl sulfoxide (DMSO) and stored at −20°C. Before experiments, the stock solution was diluted in 1 × Ringer's buffer (96 mM NaCl, 2 mM KCl, 5 mM MgCl2, 0.8 mM CaCl2 and 5 mM HEPES, pH 7.6) to working concentration of 10^−4 M. 1 × Ringer's buffer containing 0.1% DMSO was used as a negative control.
(§2) The vectors contain the full ORF of all ORs were linearized to prepare the templates and the cRNA was synthesized with mMESSAGE mMACHINE SP6 (Ambion). Stage V to VII oocytes were treated with 2 mg/mL collagenase I (GIBCO, Carlsbad, CA) in 1 × Ca^2+-free washing buffer (96 mM NaCl, 2 mM KCl, 5 mM MgCl2 and 5 mM HEPES, pH 7.6) for about 1 h at room temperature. After being cultured overnight at 18°C, oocytes were then microinjected with 27.6 ng of Orco cRNA and 27.6 ng of ORs cRNA. Oocytes microinjected with 55.2 ng of Orco were used as negative controls. Injected oocytes were incubated for 4–7 days at 18°C in 1 × washing buffer (96 mM NaCl, 2 mM KCl, 5 mM MgCl2, 0.8 mM CaCl2 and 5 mM HEPES, pH 7.6) supplemented with 5% dialysed horse serum, 50 mg/mL tetracycline, 100 mg/mL streptomycin and 550 mg/mL sodium pyruvate.
(§3) Whole-cell currents were recorded with a two-electrode voltage clamp from the injected oocytes. Odorant-induced currents were recorded with an OC-725C oocyte clamp (Warner Instruments, Hamden, CT, USA) at a holding potential of −80 mV. […]
Procedure for HsubOR14/HsubOrco: as §1, §2, §3
Procedure for HsubOR16/HsubOrco: as §1, §2, §3

For the compound `CCCC/C=C\CCCCCCCC=O` [Z9-14:Ald, (Z)-9-tetradecenal], the “response of mutant receptor to compound” value in test [1] is recorded as “lost its response; also recorded: lost its ability to bind”. For the same compound, the “response of HvirOR6 mutants compared with HvirOR6” value in test [2] was “significant decrease in the response”; in [3] it was “did not have altered responses”; in [5], “increased responses”; in test [6], “decreased responses”. For the same compound, the “response of receptor to compound” value is on record as “little if any response; also recorded: lost its ability to recognize” on HsubOR6/HsubOrco and “responsive” at HvirOR6/HvirOrco. Moreover, at SM321 (HsubOR6 V321L), the “response of mutant receptor compared with HsubOR6” value is listed as “remained unchanged”. Also, the “response of chimeric OR6s compared with original sequences” value in [4] is on record as “decreased significantly”. In addition, the “response to Z9-14:Ald relative to that to Z9-16:Ald” value on HvirOR6/HvirOrco (10^-4 M, HvirOR6) is “about 8.23 times”. The “response (inward current)” value at HvirOR6/HvirOrco is 1,541.96 nA.
As for `CCCCCC/C=C\CCCCCCCC=O` [Z9-16:Ald, (Z)-9-hexadecenal], the “response of HvirOR6 mutant compared with HvirOR6” value with HvirOR6 mutant VM18 is listed as “increased response”; in the test on HvirOR6 mutant VM19, “decreased response”. The pEC50 (in general, the EC50 on a negative log10 scale, so that one unit is a factor of ten) was 4.39 in test [1]; 4.33 at HsubOR6/HsubOrco (holding potential -80 mV, read-out: EC50 (dose-response of inward current)); 4.69 at SM321 (HsubOR6 V321L); 4.61 on HvirOR6/HvirOrco. The “response of mutant receptor to compound” value in [1] is reported as “retaining the response”. The “response of HvirOR6 mutants compared with HvirOR6” value in test [2] was “significant decrease in the response”; in test [3] it was “did not have altered responses”. Besides, the figures for the “response of receptor to compound” value on HsubOR6/HsubOrco and at HvirOR6/HvirOrco were “responded; also recorded: specifically responsive” and “responsive”, respectively. Further, the “average response (inward current)” value on HsubOR6/HsubOrco (concentration of 10^-4 M) came to 184.04 nA. Besides, the “response of mutant receptor compared with HsubOR6” value on SM321 (HsubOR6 V321L) is given as “increased”. Moreover, the “response of chimeric OR6s compared with original sequences” value in test [4] is listed as “decreased significantly”. Further, the “response (inward current)” value at HvirOR6/HvirOrco is 187.44 nA.
Take `CCCC/C=C\CCCCCCCCCC=O` [Z11-16:Ald, (Z)-11-hexadecenal]: the “response of receptor to compound” value with HsubOR13/HsubOrco is given as “specifically responded”.
For `CCCC/C=C\CCCCCCCCCCOC(C)=O` [Z11-16:OAc, (Z)-11-hexadecenyl acetate], the “response of receptor to compound” value with HsubOR14/HsubOrco was “specifically activated”.
Turning to `CCCC/C=C\CCCCCCCCCCO` [Z11-16:OH, (Z)-11-hexadecen-1-ol], in the test with HsubOR16/HsubOrco, the “response of receptor to compound” value is “responded robustly”.

Values taken from article PMC8403742, “A single point mutation causes one-way alteration of pheromone receptor function in two Heliothis species” (iScience, 2021).
